Where “and” joins values, the source holds several entries; their conditions need not be identical. Identical values can stand only once.
System: BAX
Assay: BAX expression assay (Western blot)
Type: cell-based, human
Conditions: HepG2, 1.13 µM, 24 h
Method: The expression of BAX and Bcl-2 were evaluated in the HepG2 cells after treatment with 1.13 µM of compound 17a for 24 h. The Western blotting technique was utilized to determine the levels of Bax and Bcl-2 proteins and estimate the Bax/Bcl-2 ratio.
The expression of apoptotic BAX and antiapoptotic Bcl-2 proteins in the liver HepG2 cells treated with 1.13 μM of 17a was determined using Western blot analysis, as described in the Supplementary Materials. […]
Casp3 F: 5ʹ‐ […] ‐3ʹ
Casp3 R: 5ʹ‐ […] ‐3ʹ […]
β‐actin F: 5ʹ‐[…]‐3ʹ […]
β‐actin R: 5ʹ‐[…]‐3ʹ […]
4.2.6. Bax and Bcl‐2 expression assay
The expression of BAX and Bcl‐2 proteins were determined using Western blot anal‐ ysis. In brief, HepG2 cells were treated with control or with the synthesized compound 17a (1.13 μM). Then cells were lysed in 250 μL precold lysis buffer (pH 7.4: Tris‐Base [10 mM], NaCl [100 mM], ethylenediaminetetraacetic acid [EDTA, 25 mM], ethylene glycol bis (2‐ aminoethyl) tetraacetic acid [EGTA, 25 mM], 1% [v/v] NP‐40, and 1% [v/v] Triton X‐100) supplemented with 1:350 protease:phosphatase inhibitors cocktail (Sigma). The cells were immediately frozen at −20°C for 1.5 hours for further analysis, collected by cell scraper, sonicated 3 × 10 seconds, and centrifuged (13000 rpm, 15 minutes). Total protein concentrations in the supernatant were colorimetrically determined using the Pierce 660 nm Protein Assay method (Thermo Fisher Scientific, Rockford, IL), with BSA as the stand‐ ard. Equal amounts of protein (25 μg) samples were mixed with SDS‐loading buffer (pH 6.8: Tris‐HCl [700 mM], dithiothreitol [DTT, 600 mM], sodium dodecyl sulfate [SDS, 12%], glycerol [60%], and bromophenol blue [0.012%]), denatured by boiling at 95°C for 10 minutes, allowed to cool on ice for 15 minutes, vigorously vortexed for 30 seconds, loaded into SDS‐polyacrylamide gel and separated by an electrophoresis unit (Cleaver Scientific Ltd, UK), and transferred onto polyvinylidene fluoride membranes (Bio‐Rad) for 35 minutes using a Trans‐Blot SD semi‐dry transfer cell (Bio‐Rad) at 250 mA and 22 V. Mem‐ branes were blocked with 5% (w/v) blotting grade dry milk (Bio‐Rad) in Tris‐buffered saline/Tween‐20 (TBS‐T) (pH 7.5: Tris‐base [20 mM], NaCl [150 mM], and 0.05% [v/v] Tween‐ 20) while shaken for 1.5 hour at RT, and then incubated with the corresponding primary antibody against BAX (Biovision, USA) and Bcl‐2 (Bioimaging, system, syngene, UK) for 9‐10 hours at 4°C in a humidified chamber. […] Means of the detected blot intensities were then quantified, analyzed by the combined Bio‐Rad Image Lab soft‐ ware and their corresponding background subtracted, with normalization to the corre‐ sponding bands density of β‐actin as the sampling loading control. […]

O=C1Nc2ccccc2C1=Nc1ccc(C(=O)NNC(=S)Nc2ccccc2)cc1 [Compound 17a, 2-(4-((2-Oxoindolin-3-ylidene)amino)benzoyl)-N-phenylhydrazinecarbothioamide]
increase of BAX expression versus control: 2.69 fold and 2.7 fold | increase of BAX/Bcl-2 ratio versus control: 5 fold | Protein Expression (Normalized to β-Actin) BAX (control 0.175): 0.472 | BAX/Bcl-2 Ratio (control 0.41): 2.06
